Target: T1, human GnRH receptor (Homo sapiens, UniProt P30968)
T1 construct: expressed in transfected cells; host or cells: CHO (Chinese Hamster Ovary) cells, membrane fraction
T1 sequence (P30968 1-328): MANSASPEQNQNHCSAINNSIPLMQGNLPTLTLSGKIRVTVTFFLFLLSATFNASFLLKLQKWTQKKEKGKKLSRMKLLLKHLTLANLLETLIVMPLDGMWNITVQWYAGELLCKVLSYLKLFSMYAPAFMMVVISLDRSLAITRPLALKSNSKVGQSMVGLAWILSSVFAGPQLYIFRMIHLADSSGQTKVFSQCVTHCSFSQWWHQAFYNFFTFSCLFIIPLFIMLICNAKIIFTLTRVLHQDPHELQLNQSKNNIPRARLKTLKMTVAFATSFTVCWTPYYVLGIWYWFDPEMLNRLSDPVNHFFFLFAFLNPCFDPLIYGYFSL
Assay: Determination of inhibitory rate of 125I-leuprorelin binding (membrane fraction of CHO cells expressing human GnRH receptors)
Conditions: CHO cell membrane expressing human GnRH receptors, 25° C., 60 minutes, Hill plot
Protocol: (1)Preparation of ^125 I-leuprorelin:
Ten μl of 3×10^-4 M aqueous solution of leuprorelin and 10 μl of 0.01 mg/ml lactoperoxidase in 0.1M HEPES buffer (pH 7.4) were taken into a tube, to which was added 10 μl (37 MBq in 0.1 M HEPES buffer (pH7.4)) of an Na^125 I solution. The mixture was stirred, to which was added 10 μl of 0.001% H2O2, then reaction was allowed to proceed for 20 minutes at room temperature. To the reaction mixture was added 700 μl of a 0.05% TFA solution to cease the reaction. The product was purified by means of reversed phase HPLC. Conditions of HPLC are as follows. ^125 I-leuprorelin was eluted at a retention time of 26 to 27 minutes.
(2) Preparation of membrane fraction of CHO (Chinese Hamster Ovary) cells containing human GnRH receptors
CHO cells (10^9) expressing human GnRH receptors were suspended in a phosphate-buffered saline supplemented with 5 mM EDTA (ethylenediamine tetraacetate) (PBS-EDTA). […]
The reaction was allowed to proceed at 25° C. for 60 minutes. […] After completion of the filtration, radioactivity of the ^125 I-leuprorelin remaining on the filter paper was measured with a γ-counter.
By calculation of the following formula, the binding inhibitory rate (PMB, %) of each test compound was determined.
TB: Maximum binding radioactivity.
SB: Radioactivity obtained when a compound was added. […]

Which IC50 does the source give for `C=C(C)COc1ccc(-c2sc3c(c2CN(C)Cc2ccccc2)c(=O)c(C(=O)C(C)C)cn3Cc2c(F)cccc2F)cc1` [Example 3(4), 2-[4-(2-methyl-2-propen-1-yl-oxy)phenyl]-4,7-dihydro-7-(2,6-difluorobenzyl)-3-(N-benzyl-N-methylaminomethyl)-5-isobutyryl-4-oxothieno[2,3-b]pyridine] here?
The IC50 was 10 nM.

Reference: patent US6001850A, “Thienopyridine derivatives, their production and use” (Takeda Chemical Industries, Ltd., priority 1996, dated 1999)
